In ChEMBL document CHEMBL5727273, “Heteroaryldiazepine derivatives as RSV inhibitors” (2019) one finds EC50 data, which are given here for 7 molecules.

A short description of this experiment: RSV assay: Following extensive parameter testing, the final assay is run as follows: HEp-2 cells are seeded into the inner 60 wells of a 96-well plate at 8,000 cells per well in a volume of 50 μL using Growth Media (DMEM without phenol red, 1% L-Glut, 1% Penn/Strep, 1% nonessential amino acids, 10% FBS). 2-fold serial dilutions of control and test compounds are added to the wells in duplicate in a total volume of 25 μL. Viral stock is then added to the wells in a volume of 25 μL, bringing the total volume of each well to 100 μL. Each 96-well plate has a control column of 6 wells with cells and virus but no compound (negative control, max CPE), a column with cells but no compound or virus (positive control, minimum CPE), and a column with no cells or virus or compound (background plate/reagent control). The control wells with cells but no virus are given an additional 25 uL of growth media containing an equal quantity of sucrose as those wells receiving the viral stock in order to keep consistent in media and volume conditions. The outer wells of the plate are filled with 125 μL of growth media to act as a thermal and evaporative moat around the test wells. Following a 4-day incubation period, the plates are read using ATPlite (50 uL added per well), which quantifies the amount of ATP (a measure of cell health) present in each well. Assay plates are read using the Envision luminometer. (ATP-based viability assays read luminescence as a measure of living cells.)

In the case of `O=C1Nc2ncccc2C(c2ccccc2)=NC1Nc1nnc(-c2ccc(F)cc2)o1` (centres undefined), under “HEp-2”, the EC50 – broadly, the midpoint of the concentration-response curve – was over 800 nM.

For the setting “HEp-2”, `O=C(NC1N=C(c2ccccc2)c2ccsc2NC1=O)OCc1ccccc1` (centres undefined) showed an EC50 of 600 nM.

Regarding `NC1N=C(c2ccccc2)c2sccc2NC1=O` (centres undefined), for the setting “HEp-2”, the EC50 was determined as 600 nM.

In the case of `O=C1Nc2cccnc2C(c2ccccc2)=NC1Nc1nnc(-c2ccccc2)o1` (centres undefined), the EC50 (HEp-2) was over 800 nM.

The molecule `Cc1sc2c(c1C)C(c1ccccc1)=NC(Nc1nnc(-c3ncc(C(F)(F)F)cc3N3CCOCC3)o1)C(=O)N2` (centres undefined) returned an EC50 of over 800 nM. The molecule also came in with an EC50 (HEp-2) of 600 nM.

In turn, `Cc1cc(C(=O)c2ccccc2)c(N)s1` yielded an EC50 of over 800 nM. Where the note is “HEp-2”, this molecule came in with a concentration giving a half-maximal response (EC50) of under 400 nM.

Turning to `O=C1Nc2cnccc2C(c2ccccc2)=NC1Nc1nnc(-c2ccc(F)cc2)o1` (centres undefined), where the note is “HEp-2”, the EC50 was over 800 nM.
